Reference: PubChem BioAssay (NCI)
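The compound was tested at five concentrations on cells cultured in 96-well plates, with a 48-hour exposure period. At the GI50, growth is halved. The concentration for full growth arrest is given as TGI.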

Assays:
Test in all cases: NCI tumour cell line growth inhibition, 48 h
786-0 renal = test system: 786-0 renal
ACHN renal = test system: ACHN renal
OVCAR-4 ovarian = test system: OVCAR-4 ovarian
SF-268 CNS = test system: SF-268 CNS
SF-539 CNS = test system: SF-539 CNS
SK-OV-3 ovarian = test system: SK-OV-3 ovarian
SN12C renal = test system: SN12C renal
SW-620 colon = test system: SW-620 colon
UACC-257 melanoma = test system: UACC-257 melanoma
UO-31 renal = test system: UO-31 renal

Row | SMILES | GI50 (786-0 renal) | TGI (786-0 renal) | GI50 (ACHN renal) | TGI (ACHN renal) | GI50 (OVCAR-4 ovarian) | TGI (OVCAR-4 ovarian) | GI50 (SF-268 CNS) | TGI (SF-268 CNS) | GI50 (SF-539 CNS) | TGI (SF-539 CNS) | GI50 (SK-OV-3 ovarian) | TGI (SK-OV-3 ovarian) | GI50 (SN12C renal) | TGI (SN12C renal) | GI50 (SW-620 colon) | TGI (SW-620 colon) | GI50 (UACC-257 melanoma) | TGI (UACC-257 melanoma) | GI50 (UO-31 renal) | TGI (UO-31 renal)
1 | Cc1ccc(Cl)cc1Nc1nc(C(F)(F)F)ccc1C(=O)N1CCN(c2cccc(Cl)c2)CC1 | > 100000 nM | > 100 µM | > 100000 nM | > 100 µM | > 100 µM | > 100 µM | > 100 µM | > 100 µM | > 100000 nM | > 100 µM | > 100 µM | > 100 µM | > 100 µM | > 100 µM | > 100 µM | > 100 µM | > 100000 nM | > 100 µM | 24800 nM | > 100 µM
2 | CCCCCCC[CH2][Sn]1([CH2]CCCCCCC)[O]C(=O)c2cccnc2[S]1 | > 100000 nM | > 100 µM | > 100000 nM | > 100 µM | > 100 µM | > 100 µM | – | – | > 100000 nM | > 100 µM | > 100 µM | > 100 µM | > 100 µM | > 100 µM | > 100 µM | > 100 µM | > 100000 nM | > 100 µM | > 100000 nM | > 100 µM
3 | O=C(NCCCCN=c1cccccc1NCCCCNC(=O)OCc1ccccc1)OCc1ccccc1 | – | 31.8 µM | – | 59.5 µM | – | 57.5 µM | – | 63.8 µM | – | 31.8 µM | – | 45.5 µM | – | 51.6 µM | – | 41.7 µM | – | 29.3 µM | – | 21.4 µM
4 | COc1ccc(C(O)c2nccn2C)c(OC)c1 (centres undefined) | – | > 100 µM | – | > 100 µM | – | > 100 µM | – | > 100 µM | – | > 100 µM | – | > 100 µM | – | > 100 µM | – | > 100 µM | – | > 100 µM | – | > 100 µM
5 | O=c1c2ccccc2sc2cccc(NCCCN3CCN(CCCNc4cccc5sc6ccccc6c(=O)c45)CC3)c12 | – | > 100 µM | – | > 100 µM | – | > 100 µM | – | > 100 µM | – | > 100 µM | – | > 100 µM | – | > 100 µM | – | > 100 µM | – | > 100 µM | – | > 100 µM
6 | COc1ccc2[nH]cc(-c3nc(-c4c[nH]c5ncccc45)cs3)c2c1 | 1970 nM | > 100 µM | 2850 nM | > 100 µM | 6.89 µM | > 100 µM | 6.66 µM | > 100 µM | 4880 nM | > 100 µM | 4.41 µM | > 100 µM | 4.96 µM | > 100 µM | 3.46 µM | > 100 µM | – | – | 1410 nM | > 100 µM
7 | COc1ccc2oc(-c3cccnc3)cc(=O)c2c1 | – | > 100 µM | – | > 100 µM | – | > 100 µM | – | > 100 µM | – | – | – | – | – | > 100 µM | – | – | – | > 100 µM | – | 69.2 µM
8 | COc1cc(CNCCCN2C(=O)c3ccc4c5c(ccc(c35)C2=O)C(=O)N(CCCNCc2cc(OC)c(OC)c(OC)c2)C4=O)cc(OC)c1OC | 944 nM | 2.39 µM | 841 nM | 3.17 µM | 0.0751 µM | 0.149 µM | 0.542 µM | 2.27 µM | 653 nM | 1.39 µM | 1.01 µM | 2.65 µM | 0.227 µM | 0.475 µM | 0.203 µM | 0.785 µM | 283 nM | 0.541 µM | 2910 nM | 9.48 µM
9 | Ic1ccc(-n2nnnc2-c2cnoc2-c2ccccc2)cc1 | 60200 nM | > 100 µM | > 61100 nM | > 100 µM | > 64.2 µM | > 100 µM | 54 µM | > 100 µM | – | 3.98 µM | > 65.4 µM | > 100 µM | 48.9 µM | > 88.3 µM | 39.6 µM | > 100 µM | > 58500 nM | > 100 µM | > 50500 nM | > 100 µM
10 | COc1cc(-c2nn(-c3cccc(NC(=O)Nc4ccc(Cl)c(Cl)c4)c3)cc2-c2ccncc2)ccc1Cl | 1310 nM | 4.48 µM | 1000 nM | > 50 µM | 1.29 µM | > 50 µM | 1.51 µM | 20.3 µM | 965 nM | 3.08 µM | 1.93 µM | > 50 µM | 1.47 µM | > 50 µM | 1.59 µM | > 50 µM | 1040 nM | 3.11 µM | 845 nM | 4.96 µM
11 | CC(=O)OC12c3ccccc3-c3ccccc3C1C1C(=O)N(C)C(=O)C12Cl (centres undefined) | – | > 10 µM | – | > 10 µM | – | > 10 µM | – | > 10 µM | – | > 10 µM | – | > 10 µM | – | > 10 µM | – | > 10 µM | – | > 10 µM | – | > 10 µM
12 | C1CSCCSCCS1 | – | > 100 µM | – | – | – | > 100 µM | – | > 100 µM | – | > 100 µM | – | > 100 µM | – | > 100 µM | – | > 100 µM | – | > 100 µM | – | > 100 µM
13 | COC1C(O)=C2C(=O)O/C(C)=C/C=C/C=C/C=C\CC(c3ccccc3)NC(=O)\C=C/C=C\C=C\C=C\[C@@]2(C)[C@@H]1O (some centres undefined) | – | 0.148 µM | – | 0.122 µM | – | 1.85 µM | – | 0.318 µM | – | 0.047 µM | – | 0.188 µM | – | 0.538 µM | – | 0.139 µM | – | 0.165 µM | – | 0.0607 µM
14 | CCOc1ccc(N2C(=O)/C(=C/c3ccc(N(CCC#N)CCC#N)cc3)N=C2c2cc([N+](=O)[O-])ccc2Cl)cc1 | – | 26.4 µM | – | > 100 µM | – | > 100 µM | – | > 100 µM | – | > 100 µM | – | > 100 µM | – | > 100 µM | – | 55.9 µM | – | – | – | > 100 µM
15 | CCOC(=O)C1(c2ccccc2)CCC(=O)CC1 | – | > 100 µM | – | > 100 µM | – | > 100 µM | – | > 100 µM | – | – | – | > 100 µM | – | > 100 µM | – | > 100 µM | – | > 100 µM | – | > 100 µM
16 | Cc1ccc(S(=O)(=O)N/N=C/c2oc(-c3ccncc3)c(-c3ccncc3)c2[N+](=O)[O-])cc1 | – | > 100 µM | – | > 100 µM | – | > 100 µM | – | > 100 µM | – | > 100 µM | – | > 100 µM | – | > 100 µM | – | > 100 µM | – | > 100 µM | – | > 100 µM
